Source: US10259815B2, “Gabaergic ligands and their uses” (UWM Research Foundation, Inc., priority 2015, dated 2019)

How the values were obtained:
[1] = Pharmacokinetics after 10 mg/kg P.O. dose, mice; assay type: in vivo; conditions: mouse, blood, po
From the text: Although these are different species, the numbers can still be compared.

[2] = Liver microsomal stability, mouse; assay type: in vitro ADME; conditions: 37° C., 4 μM compound, 30 minutes
Procedure: (§1) In vitro metabolism studies were done in mouse, rat, human, and dogs cells (TABLE 2).
(§2) In vitro liver microsomal studies were completed to measure the stability of the compounds against degradation in various species' liver microsomes.
(§3) Compound was incubated in hepatic microsomes over a 30-minute incubation period at 37° C. Incubations both with and without NADPH (2 mM) were performed in a 96-well plate format. The reaction was initiated with the addition of substrate and was terminated by protein precipitation. All incubations were performed using a final substrate concentration of 4 μM in 50 mM sodium phosphate buffer, pH 7.4. The final organic solvent content was 0.5% acetonitrile and 0.02% DMSO. The amount of enzyme present was fixed at 1.11 mg/mL protein irrespective of the species of microsomes used. Samples were analyzed by LC/MS-MS to determine the percent loss in the NAPDH incubations relative to the NADPH free incubations.

rhesus monkeys = conditions: previously shown; cited from earlier work
Sprague Dawley male rats = test: Mechanical hyperalgesia (von Frey) in CFA-induced inflammatory pain rat model; assay type: in vivo; conditions: cumulative i.p. dosing, 3 days after CFA
Procedure: Raw data (paw withdrawal threshold, expressed in g of von Frey filament) was converted to a maximal possible effect value according the following equation: % MPE=[(test threshold(g)−control threshold(g)/(pre-CFA threshold−control threshold)]×100.
Complete Freund's adjuvant (CFA) contains Mycobacterium butyricum, inducing inflammation and an increase in paw thickness. 0.1 mL of CFA was injected in the right hind paw of Sprague Dawley male rats under isoflurane anaesthesia.
Mechanical hyperalgesia. Mechanical hyperalgesia was measured 3 days after CFA treatment. Rats (n=6) were placed in elevated boxes with a mesh floor. Von Frey filaments (expressed in g) were applied perpendicularly to the hindpaws, starting with the lowest filament (1.4 g) then increased until hindpaw withdrawal was observed. After each measurement, rats received the next dose of drug (every 20 min) until the maximum threshold (26 g) was observed. For the antagonist study, rats were pretreated with the benzodiazepine site antagonist flumazenil (10 min) and then received the next dose of drug (every 20 min) until the pre-CFA threshold was observed.
Drugs. The following drugs were used: HZ166, KRM-II-18B, and KRM-II-81, and were dissolved in a mixture containing 20% Dimethyl sulfoxide (DMSO), 10% Emulphor-620 (Rhodia Inc.), and 70% of 0.9% saline. Flumazenil (purchased from Cayman Chemical Company, MI) was dissolved in a mixture containing 10% ethanol, 40% propylene glycol, and 50% sterile water. Midazolam (Akorn, Inc.) was dissolved in 0.9% saline. Doses were expressed as the weight of the drug in milligrams per kilogram of body weight and drugs were administered intraperitoneally.

Male CD-1 mice [3] = test: Maximal electroshock (MES)-induced convulsion protection; assay type: in vivo; conditions: i.p. 30 minutes prior to test
Procedure: Male CD-1 mice (n=10) were dosed i.p. 30 minutes prior to being tested. Results were analyzed using ANOVA (Dunnett's test versus vehicle: *P<0.05).
The maximal electroshock (MES) assay is designed to determine how well a test compound can prevent seizures induced by applying a voltage stimuli to a mouse.
Mice were subjected to electrical induced tonic seizures and examined for anticonvulsant effects 30 minutes after treatment. Mice were then given a 7 mA electroshock using a Wahlquist Model H for 0.2 seconds and observed for the presence or absence of seizure activity. Each mouse is tested only once and euthanized immediately following the test.

Male Sprague-Dawley rats [4] = test: Inverted screen test (muscle relaxation); assay type: in vivo; conditions: for muscle relaxation / motor impairment in inverted screen: i.p. 30 minutes prior, diazepam 3, 10, 30 mg/kg, KRM-II-81 10, 30, 60 mg/kg, HZ-166 30 mg/kg
Procedure: (§4) Results were analyzed using ANOVA (Dunnett's test: *P<0.05).
The inverted screen test is used to measure whether or not a test compound induces muscle relaxation. When a test subject is placed on a wire screen which is then inverted, the reaction is to climb to the opposite side so they are no longer hanging upside down. If a compound promotes muscle relaxation, the test subjects will either fall off, or hang onto the screen without being able to climb to the opposite side.
Rats were placed onto the top of a wire screen, which was then inverted so that the rats were hanging upside down. […] Results were analyzed using ANOVA (Dunnett's test: *P<0.05).

Male Sprague-Dawley rats [5] = conditions: has been shown; cited from earlier work
[6] = Liver microsomal stability, dog; assay type: in vitro ADME; conditions: 37° C., 4 μM compound, 30 minutes
Procedure: as §1, §2, §3

Male NIH Swiss mice = conditions: previously shown; cited from earlier work
Male Sprague-Dawley rats [7] = test: scMET-induced seizure protection, rats; assay type: in vivo; conditions: pentylenetetrazole 35 mg/kg
Procedure: A 35 mg/kg subcutaneous dose of pentylenetetrazole was given and the percent outcome of seizure was recorded. Results were analyzed using ANOVA (Dunnett's test: *P<0.05).
Test subjects were given a test compound, followed by a 35 mg/kg dose of MET and observed for convulsions (FIG. 7).
as §4

Male Sprague-Dawley rats [8] = conditions: previously shown; species not stated; cited from earlier work
[9] = Liver microsomal stability, human; assay type: in vitro ADME; conditions: 37° C., 4 μM compound, 30 minutes
Procedure: as §1, §2, §3

Male CD-1 mice [10] = conditions: previously shown; cited from earlier work
Male Sprague-Dawley rats [11] = test: PTZ-induced seizure threshold; assay type: in vivo; conditions: test compound 3 to 60 mg/kg, diazepam 0.1 to 1 mg/kg i.p.
Procedure: as §4
After a pretreatment of test compound, MET was intravenously administered to a test subject until a convulsions were observed.
Each animal was used only once and was euthanized post testing. Results were analyzed using ANOVA (Dunnett's test: *P<0.05).

[12] = Liver microsomal stability, rat; assay type: in vitro ADME; conditions: 37° C., 4 μM compound, 30 minutes
Procedure: as §1, §2, §3

GABAA/α5 receptors = GABAA/α5 receptors (Homo sapiens, UniProt P18507+P31644); conditions: as disclosed in Huang, et al., J. Med. Chem. 2000; cited from earlier work
GABAA/α1 receptors = GABAA/α1 receptors (Homo sapiens, UniProt P14867+P18507); conditions: as disclosed in Huang, et al., J. Med. Chem. 2000; cited from earlier work
GABAA/α3 = GABAA/α3 (Homo sapiens, UniProt P18507+P34903); conditions: as disclosed in Huang, et al., J. Med. Chem. 2000; cited from earlier work
GABAA/α2 = GABAA/α2 (Homo sapiens, UniProt P18507+P47869); conditions: as disclosed in Huang, et al., J. Med. Chem. 2000; cited from earlier work
Chain of GABAA/α2 (P47869 29-451): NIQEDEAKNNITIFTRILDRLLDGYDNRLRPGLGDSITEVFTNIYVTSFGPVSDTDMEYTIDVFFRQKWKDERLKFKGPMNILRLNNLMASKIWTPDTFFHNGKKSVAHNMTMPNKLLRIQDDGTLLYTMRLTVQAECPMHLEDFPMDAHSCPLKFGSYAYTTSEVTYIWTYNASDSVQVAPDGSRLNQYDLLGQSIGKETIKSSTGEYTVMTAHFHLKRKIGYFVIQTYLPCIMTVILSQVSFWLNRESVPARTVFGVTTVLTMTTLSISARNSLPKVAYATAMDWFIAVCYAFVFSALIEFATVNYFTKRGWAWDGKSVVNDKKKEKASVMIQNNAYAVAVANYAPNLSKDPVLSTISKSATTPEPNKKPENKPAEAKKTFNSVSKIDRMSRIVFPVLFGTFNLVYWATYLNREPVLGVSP
Chain of GABAA/α2 (P28472 26-473 partner): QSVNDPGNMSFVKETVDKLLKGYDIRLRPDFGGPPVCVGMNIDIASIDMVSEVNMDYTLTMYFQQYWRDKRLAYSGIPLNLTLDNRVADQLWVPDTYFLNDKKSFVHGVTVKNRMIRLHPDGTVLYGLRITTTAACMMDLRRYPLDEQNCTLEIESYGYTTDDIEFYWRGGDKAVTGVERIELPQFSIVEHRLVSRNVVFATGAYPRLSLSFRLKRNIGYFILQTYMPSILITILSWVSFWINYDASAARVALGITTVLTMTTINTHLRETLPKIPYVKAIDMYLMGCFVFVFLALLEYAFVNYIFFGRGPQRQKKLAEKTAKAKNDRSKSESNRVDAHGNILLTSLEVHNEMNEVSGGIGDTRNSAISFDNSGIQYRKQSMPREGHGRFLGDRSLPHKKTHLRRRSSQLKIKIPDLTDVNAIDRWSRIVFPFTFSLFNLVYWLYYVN
Chain of GABAA/α2 (P18507 40-475): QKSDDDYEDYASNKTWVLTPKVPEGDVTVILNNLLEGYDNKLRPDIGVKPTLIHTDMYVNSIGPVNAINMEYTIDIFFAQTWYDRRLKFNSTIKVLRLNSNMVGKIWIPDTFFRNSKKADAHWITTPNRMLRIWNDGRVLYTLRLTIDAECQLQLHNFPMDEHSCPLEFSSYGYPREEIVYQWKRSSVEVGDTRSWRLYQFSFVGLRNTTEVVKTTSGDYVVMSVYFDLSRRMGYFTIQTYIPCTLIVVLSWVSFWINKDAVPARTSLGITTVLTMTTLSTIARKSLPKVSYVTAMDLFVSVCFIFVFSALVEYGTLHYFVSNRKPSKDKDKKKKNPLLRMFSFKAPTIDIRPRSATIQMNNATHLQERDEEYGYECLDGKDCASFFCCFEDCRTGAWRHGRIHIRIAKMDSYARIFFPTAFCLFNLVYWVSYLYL

Chain of GABAA/α1 receptors (P14867 28-456): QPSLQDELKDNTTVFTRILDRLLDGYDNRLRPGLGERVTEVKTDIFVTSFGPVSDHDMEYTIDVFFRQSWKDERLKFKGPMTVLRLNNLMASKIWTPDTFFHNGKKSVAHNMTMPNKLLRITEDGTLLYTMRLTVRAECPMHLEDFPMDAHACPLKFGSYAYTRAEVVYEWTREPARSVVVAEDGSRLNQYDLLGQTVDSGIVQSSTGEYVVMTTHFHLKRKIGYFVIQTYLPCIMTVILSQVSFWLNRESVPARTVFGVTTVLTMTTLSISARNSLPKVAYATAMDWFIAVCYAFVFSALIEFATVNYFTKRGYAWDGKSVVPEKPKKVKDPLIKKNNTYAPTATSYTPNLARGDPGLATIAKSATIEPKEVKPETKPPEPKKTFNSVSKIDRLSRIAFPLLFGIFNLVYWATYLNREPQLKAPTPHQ
Chain of GABAA/α1 receptors (P28472 26-473 partner): as the sequence (P28472 26-473 partner) above
Chain of GABAA/α1 receptors (P18507 40-475): as the sequence (P18507 40-475) above
Chain of GABAA/α3 (P34903 29-492): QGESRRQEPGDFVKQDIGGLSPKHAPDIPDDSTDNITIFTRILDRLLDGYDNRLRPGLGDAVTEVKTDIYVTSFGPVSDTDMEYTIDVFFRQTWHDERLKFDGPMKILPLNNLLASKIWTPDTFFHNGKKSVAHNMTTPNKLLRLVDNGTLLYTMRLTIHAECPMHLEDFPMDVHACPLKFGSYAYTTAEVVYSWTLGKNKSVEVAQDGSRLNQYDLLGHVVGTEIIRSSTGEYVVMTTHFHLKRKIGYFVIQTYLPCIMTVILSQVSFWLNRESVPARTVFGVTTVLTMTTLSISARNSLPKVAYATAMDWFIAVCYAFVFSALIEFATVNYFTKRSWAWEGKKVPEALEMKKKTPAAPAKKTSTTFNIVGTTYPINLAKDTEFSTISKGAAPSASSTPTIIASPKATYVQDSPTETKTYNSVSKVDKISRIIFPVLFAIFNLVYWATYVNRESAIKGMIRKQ
Chain of GABAA/α3 (P28472 26-473 partner): as the sequence (P28472 26-473 partner) above
Chain of GABAA/α3 (P18507 40-475): as the sequence (P18507 40-475) above
Chain of GABAA/α5 receptors (P31644 32-462): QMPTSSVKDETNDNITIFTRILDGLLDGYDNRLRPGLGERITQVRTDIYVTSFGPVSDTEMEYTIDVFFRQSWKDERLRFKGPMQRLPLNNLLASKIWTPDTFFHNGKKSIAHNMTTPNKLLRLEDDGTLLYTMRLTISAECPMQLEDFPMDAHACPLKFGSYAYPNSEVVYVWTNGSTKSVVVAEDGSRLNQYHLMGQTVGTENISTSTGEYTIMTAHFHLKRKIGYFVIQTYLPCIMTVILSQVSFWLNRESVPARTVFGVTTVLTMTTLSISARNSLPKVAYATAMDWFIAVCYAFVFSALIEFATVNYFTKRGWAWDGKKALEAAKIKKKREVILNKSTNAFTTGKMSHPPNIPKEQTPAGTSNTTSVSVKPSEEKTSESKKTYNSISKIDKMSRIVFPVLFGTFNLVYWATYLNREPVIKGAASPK
Chain of GABAA/α5 receptors (P28472 26-473 partner): as the sequence (P28472 26-473 partner) above
Chain of GABAA/α5 receptors (P18507 40-475): as the sequence (P18507 40-475) above

Question: What does the source list for `C#Cc1ccc2c(c1)C(c1ccccn1)=NCc1c(C(=O)OCC)ncn1-2` [HZ-166, Ethyl-8-ethynyl-6-(pyridin-2-yl)-4H-benzo[f]imidazo[1,5-a][1,4]diazepine-3-carboxylate]?
Answer: Tmax [1]: 5.58 h; Cmax ([1]; read-out: Cmax (highest concentration found in blood)): 4.11 ng/mL; Mouse Liver microsome stability (reported in % remaining) [2]: 54 % remaining; effectiveness in conflict procedure (rhesus monkeys): effective in rhesus monkeys; mechanical hyperalgesia in CFA-induced inflammatory pain (Sprague Dawley male rats): dose-dependently attenuated mechanical hyperalgesia; protection against MES-induced seizures (Male CD-1 mice [3]): did not; muscle relaxation / motor impairment in inverted screen (Male Sprague-Dawley rats [4]): Neither HZ-166 nor KRM-II-81 induced significant muscle relaxation; dose at which signs of muscle relaxation began to appear (Male Sprague-Dawley rats [4]; i.p., inverted screen): 30 mg/kg; performance in von Frey filament assay (Male Sprague-Dawley rats [5]): perform well in this assay; Dog Liver microsome stability (reported in % remaining) [6]: 97 % remaining; doses with no ataxic complications (Male NIH Swiss mice): over 100 mg/kg; effect against scMET seizures at 30 mg/kg (Male Sprague-Dawley rats [7]; 30 mg/kg i.p.): little effect; protection against scMET-induced seizures (Male Sprague-Dawley rats [8]): giving protection against scMET-induced seizures; Human Liver microsome stability (reported in % remaining) [9]: 80 % remaining; effectiveness in MES assay (Male CD-1 mice [10]): effective in this assay; effect on seizure threshold to PTZ (Male Sprague-Dawley rats [11]): little protection; Rat Liver microsome stability (reported in % remaining) [12]: 50 % remaining

Question: Which results are given for `C#Cc1ccc2c(c1)C(c1ccccc1)=NCC(=O)N2C` [QH-ii-066]?
Answer: Ki (GABAA/α5 receptors): < 10 nM; Ki (GABAA/α1 receptors): > 70 nM; Ki (GABAA/α3): < 50 nM; Ki (GABAA/α2): < 50 nM

Question: Which “protection against MES-induced seizures” value (Male CD-1 mice [3]) does the source give for `CN1C(=O)CN=C(c2ccccc2)c2cc(Cl)ccc21` [diazepam, reference compound] here?
Answer: fully protected against seizure induction

Question: What about the “muscle relaxation / motor impairment in inverted screen” value (Male Sprague-Dawley rats [4]) of the same compound?
Answer: produced full motor impairment

Question: What about the “dose achieving significant protection against scMET seizures” value (Male Sprague-Dawley rats [7]; i.p. 30 minutes prior) of the same compound?
Answer: 10 mg/kg

Question: And the “effect on seizure threshold to PTZ” value (Male Sprague-Dawley rats [11])?
Answer: significantly increased the seizure threshold to PTZ
